Patent US6017958A, “Method of treating malignant tumors with thyroxine analogues having no significant hormonal activity” (Octamer, Inc., priority 1997, dated 2000)
“Also recorded” adds a separate entry of the source.

Columns and labels:
[1] = system: E-ras 20 cells; experiment: cells; format: in vitro ADME, bovine; details: Bos taurus, 24 hours, read-out: Extracellular DIME (concentration that causes 100% growth inhibition)
Protocol: (§1) Monolayer cultures in 9.6 cm^2 wells (3 ml medium) were exposed to [^14 C]-DIME (10.55 mCi/mmol) for 24 hours, then washed 7 times with 1 ml medium containing unlabeled DIME. The cells were dissolved in 1 ml of 4% Na2 CO3 and 0.2 M NaOH and radioactivity measured by scintillation counting. Cell volume was determined by hematocrit and cell counting from parallel wells treated with unlabeled DIME.
(§2) A striking property of DIME is its apparent selectivity for tumors in vivo. We performed drug metabolism and cellular DIME uptake tests to further characterize this property. Incubation of cells in culture with [^14 DIME, under conditions described previously, Bauer et al., 1996, "Modification of growth related enzymatic pathways and apparent loss of tumorigenicity of a ras-transformed bovine endothelial cell line by treatment with 5-iodo-6-amino-1,2-benzopyrone (INH2 BP)" Intl. J. Oncol. […] As shown in Table 9 the tumorigenic transformed cells in general took up DIME more rapidly than nontransformed cells (CV-1) or cells that were less sensitive to killing-by DIME (e.g. E-ras 20). […] On the other hand homogenates of organs of normal mice actively metabolize (de-esterify) DIME as illustrated in Table 10.

[2] = system: MDA-MD-231 cells; experiment: Inhibition of tumor cell growth; format: cell-based, human; details: 3 days, control 0.95
Protocol: MDA-MD-231 human cancer cells were obtained from the American Tissue Culture Collection (Rockville, Md.) and maintained in the recommended growth media. Cells were grown in the presence of various concentrations of Compounds 1 and 14 for 3 days at 37° C.

[3] = system: protein phosphatase 2A (DU-145); experiment: Phosphatase activity, DU-145; format: cell-based, human
Protocol: Compounds 1-13 were tested for protein phosphatase 2A activation in malignant tumor cell cultures in vitro according to the protocol described in Bauer et al., 1996, "Modification of Growth Related Enzymatic Pathways and Apparent Loss of Tumorigenicity of a Ras-Transformed Bovine Endothelial Cell Line by Treatment with 5-Iodo-6-Amino-1,2-Benzopyrone (INH2 BP)," International J. of Oncology 8:239-252. All other compounds were ineffective.

[4] = system: MDA-MB-231 cells; experiment: Colony formation / cell killing; format: cell-based, human
Protocol: Assays for Quantitation of colony formation were performed as reported, Vidair, et al., 1986 "Evaluation of a Role for Intracellular Na^+, K^+, Ca2^+ and Mg^2+ in hyperthermic cell killing" Radiation Res. 105:187-200.

[5] = In vivo toxicity; parameters: species or system mouse
Protocol: Ten nude mice were administered a daily oral dose of ^14 C-labeled DIME (Compound 1) (1.0 g/kg, 0.1 mL in corn oil) for a period of 12-15 days.

[6] = system: noncancer cells; experiment: Replication of noncancer cells in culture; format: cell-based; details: cells growing in cultures; not shown
[7] = system: HL-60 (promyelocytic leukemia); experiment: Cytocidal action/growth inhibition, HL-60; format: cell-based; details: Homo sapiens, 72 h
Protocol: Seven human cancer cell lines were obtained from the American Tissue Culture Collection (Rockville, Md.) and maintained in the recommended growth media. Cells were seeded into wells (2 cm^2) at a density of 2×10^4 cells/cm^2. Various concentrations of Compounds 1-13 were added to the media at the time of seeding.
The cultures were incubated for 72 hours at 37° C. (5% CO2 atmosphere). Following incubation, cells were detached with trypsin and counted in a hemocytometer.
I100 designates the concentration at which no viable cells remained; I50 the concentration at which 50% viable cells remained, as compared to a control.
E-ras 20 cells were cultured as reported, Bauer et al., 1996, "Modification of growth related enzymatic pathways and apparent loss of tumorigenicity of a ras-transformed bovine endothelial cell line by treatment with 5-iodo-6-amino-1,2-benzopyrone (INH2 BP)" Intl. J. Oncol. 8:239-252; HT-144 (melanoma), DU-145 (prostatic cancer), HeLa (cervical cancer), HL 60 (promyelocytic leukemia), MDA-MB-231 (mammary cancer), SK-Br-3 (mammary cancer), T47D (ductal mammary cancer), A559 (lung cancer) were obtained from American Type Culture Collection (Rockville, Md.) and cultured in prescribed media. […]

[8] = system: MDA-MB-231 cells; experiment: cells; format: in vitro ADME; details: Homo sapiens; MDA-MB-231, 24 hours; read-out: Extracellular DIME (concentration that causes 100% growth inhibition)
Protocol: as §1, §2

[9] = system: CV-1 cells; experiment: cells; format: in vitro ADME; details: Cercopithecidae; CV-1, 24 hours; read-out: Extracellular DIME (concentration that causes 100% growth inhibition)
Protocol: as §1, §2

[10] = system: CV-1-Transformed cells; experiment: cells; format: in vitro ADME; details: 24 hours, read-out: Extracellular DIME (concentration that causes 100% growth inhibition)
Protocol: as §1, §2

SMILES: COC(=O)c1cc(I)c(Oc2ccc(OC)cc2)c(I)c1 [Compound 1, Methyl 3,5-diiodo-4-(4'-methoxyphenoxy)benzoate]
- IC100 [1]: 10 µM
- Cells (growth) ([2]; 0.5 μM): 0.20 ×10^6
- Cells (growth) ([2]; 1.0 μM): 0.10 ×10^6
- Cells (growth) ([2]; 2.0 μM): 0.09 ×10^6
- Phosphatase Activity ([3]; 50 μM DIME, untreated 12.1 ± 3): 19.1 ± 2.5 fmol Pi/mg protein × min.
- activation of protein phosphatase 2A, fold ([3]; 50 μM, DU-145 cells): at least two-fold
- colony forming ability ([4]; 1-2 μM, 10 days): profoundly diminished
- cell killing after drug removal ([4]; DIME removed prior to end of 8 hours incubation): cell killing was prevented and drug-induced morphologic changes were completely reversed
- ill effects ([5]; 1.0 g/kg daily oral, 12-15 days, nude mice, listed as DIME): No ill effects were observed; also recorded: produced no ill effects
- macroscopically observed toxicity in vivo ([5]; in vivo): no macroscopically observed toxicity in vivo
- inhibition of replication of noncancer cells [6]: inhibited to varying degrees
- IC50 ([7]; Table 4, read-out: I50): 600 nM
- IC100 ([7]; Table 4, read-out: I100 (no viable cells remained)): 3 µM
- IC100 [8]: 2 µM
- IC100 [9]: 2 µM
- IC100 [10]: 2 µM
